Data: patent US20120101093A1, “SUBSTITUTED IMIDAZO[1,2-A]PYRIDINE DERIVATIVES, PHARMACEUTICAL COMPOSITIONS, AND METHODS OF USE AS BETA-SECRETASE INHIBITORS” (HIGH POINT PHARMACEUTICALS, LLC, priority 2009, published 2012)

Target: T1, BACE-1 enzyme (Homo sapiens, UniProt P56817)
T1 construct: purchased R & D Systems 931AS
Assay: BACE Fluorescence Resonance Energy Transfer (FRET) Assay
Format: biochemical
Details: pH 4-4.5, 30 min pre-incubation, about 1.5 hours reaction
Outline: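 BACE-1 enzyme pre-incubated 30 min with compound in 7.5% DMSO in 50 mM sodium acetate pH 4-4.5, 0.01% CHAPS, 0.0125% Triton X-100, 0.006% EDTA. Rhodamine/quencher peptide substrate added; ~1.5 h at room temperature, fluorescence read at 540/585 nm. IC50 or percent inhibition at one concentration.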

T1 sequence (P56817 46-457 limits assumed): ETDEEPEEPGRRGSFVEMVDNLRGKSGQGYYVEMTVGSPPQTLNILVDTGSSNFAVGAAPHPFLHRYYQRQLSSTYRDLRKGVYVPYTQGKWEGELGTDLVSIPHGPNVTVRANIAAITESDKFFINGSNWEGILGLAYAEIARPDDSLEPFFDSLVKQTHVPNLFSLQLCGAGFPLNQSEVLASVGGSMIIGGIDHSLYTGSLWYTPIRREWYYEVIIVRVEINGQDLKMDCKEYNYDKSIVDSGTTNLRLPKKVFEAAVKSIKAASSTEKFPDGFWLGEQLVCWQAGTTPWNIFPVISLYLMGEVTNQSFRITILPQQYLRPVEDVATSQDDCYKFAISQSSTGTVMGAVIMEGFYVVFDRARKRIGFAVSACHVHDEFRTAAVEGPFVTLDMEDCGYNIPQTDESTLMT

Row | SMILES | IC50 [µM]
1 | O=C(Nc1nc2cc(-c3cc(F)cc(Cl)c3)ccc2[nH]1)c1cn2cc(F)cc(N3CCC(O)CC3)c2n1 [Example 154, 6-Fluoro-8-(4-hydroxy-piperidin-1-yl)-imidazo[1,2-a]pyridine-2-carboxylic acid [5-(3-chloro-5-fluoro-phenyl)-1H-benzoimidazol-2-yl]-amide] | 1.33
2 | CCNCc1ccc2nc(C(=O)Nc3nc4cc(-c5cccc(C(F)(F)F)c5)ccc4[nH]3)cn2c1 [Example 187, 6-Ethylaminomethyl-imidazo[1,2-a]pyridine-2-carboxylic acid [5-(3-trifluoromethyl-phenyl)-1H-benzoimidazol-2-yl]-amide] | 0.51
3 | COc1cc(F)cn2cc(C(=O)Nc3nc4cc(-c5cccc(OC(F)(F)F)c5)ccc4[nH]3)nc12 [Example 136, 6-Fluoro-8-methoxy-imidazo[1,2-a]pyridine-2-carboxylic acid [5-(3-trifluoromethoxy-phenyl)-1H-benzoimidazol-2-yl]-amide] | 0.23
4 | O=C(Nc1nc2cc(-c3cccc(C(F)(F)F)c3)ccc2[nH]1)c1cn2c(-c3ccccc3)cccc2n1 [Example 125, 5-Phenyl-imidazo[1,2-a]pyridine-2-carboxylic acid [5-(3-trifluoromethyl-phenyl)-1H-benzoimidazol-2-yl]-amide] | 1.17
5 | CN(C)CCNCc1ccn2cc(C(=O)Nc3nc4cc(-c5cccc(C(F)(F)F)c5)ccc4[nH]3)nc2c1 [Example 212, 7-[(2-Dimethylamino-ethylamino)-methyl]-imidazo[1,2-a]pyridine-2-carboxylic acid [5-(3-trifluoromethyl-phenyl)-1H-benzoimidazol-2-yl]-amide] | 0.26
6 | O=C(Nc1nc2cc(-c3cccc(C(F)(F)F)c3)ccc2[nH]1)c1cn2c(-c3ccncc3)cccc2n1 [Example 217, 5-(pyridin-4-yl)-N-{5-[3-(trifluoromethyl)phenyl]-1H-benzimidazol-2-yl}imidazo[1,2-a]pyridine-2-carboxamide] | 0.15
7 | O=C(Nc1nc2cc(-c3cc(F)cc(Cl)c3)ccc2[nH]1)c1cn2cc(F)cc(N3CC[C@H](O)C3)c2n1 [Example 152, 6-Fluoro-8-((S)-3-hydroxy-pyrrolidin-1-yl)-imidazo[1,2-a]pyridine-2-carboxylic acid [5-(3-chloro-5-fluoro-phenyl)-1H-benzoimidazol-2-yl]-amide] | 1.53
8 | O=C(Nc1nc2cc(OCc3ccc(Cl)c(Cl)c3)ccc2[nH]1)c1cn2cc(Cl)ccc2n1 [Example 20, 6-Chloro-imidazo[1,2-a]pyridine-2-carboxylic acid [5-(3,4-dichloro-benzyloxy)-1H-benzoimidazol-2-yl]-amide] | 0.25
9 | CN(C)CCOc1cc(F)cn2cc(C(=O)Nc3nc4cc(-c5cc(F)cc(Cl)c5)ccc4[nH]3)nc12 [Example 141, 8-(2-Dimethylamino-ethoxy)-6-fluoro-imidazo[1,2-a]pyridine-2-carboxylic acid [5-(3-chloro-5-fluoro-phenyl)-1H-benzoimidazol-2-yl]-amide] | 0.66
10 | CCN(CCO)Cc1ccn2cc(C(=O)Nc3nc4cc(-c5cccc(C(F)(F)F)c5)ccc4[nH]3)nc2c1 [Example 211, 7-{[Ethyl-(2-hydroxy-ethyl)-amino]-methyl}-imidazo[1,2-a]pyridine-2-carboxylic acid [5-(3-trifluoromethyl-phenyl)-1H-benzoimidazol-2-yl]-amide] | 0.24
11 | Cc1cccc2nc(C(=O)Nc3nc4cc(-c5ccc(C(F)(F)F)cc5Cl)ccc4[nH]3)cn12 [Example 91, 5-Methyl-imidazo[1,2-a]pyridine-2-carboxylic acid [5-(2-chloro-4-trifluoromethyl-phenyl)-1H-benzoimidazol-2-yl]-amide] | 0.44
12 | Cc1cccc2nc(C(=O)Nc3nc4cc(-c5ccc(Cl)c(C(F)(F)F)c5)ccc4n3CCN3CCOCC3)cn12 [Example 243, 5-Methyl-imidazo[1,2-a]pyridine-2-carboxylic acid [5-(4-chloro-3-trifluoromethyl-phenyl)-1-(2-morpholin-4-yl-ethyl)-1H-benzoimidazol-2-yl]-amide] | 6.9
13 | Cc1cc(Cl)c2nc(C(=O)Nc3nc4cc(-c5cc(F)cc(Cl)c5)ccc4[nH]3)cn2c1 [Example 144, 8-Chloro-6-methyl-imidazo[1,2-a]pyridine-2-carboxylic acid [5-(3-chloro-5-fluoro-phenyl)-1H-benzoimidazol-2-yl]-amide] | 0.55
14 | Cc1cccc2nc(C(=O)Nc3nc4cc(-c5cnc(N(C)C)nc5)ccc4[nH]3)cn12 [Example 96, 5-Methyl-imidazo[1,2-a]pyridine-2-carboxylic acid [5-(2-dimethylamino-pyrimidin-5-yl)-1H-benzoimidazol-2-yl]-amide] | 1.17
15 | CCOc1ccc(-c2ccc3[nH]c(NC(=O)c4cn5c(C)cccc5n4)nc3c2)c(Cl)c1 [Example 108, 5-Methyl-imidazo[1,2-a]pyridine-2-carboxylic acid [5-(2-chloro-4-ethoxy-phenyl)-1H-benzoimidazol-2-yl]-amide] | 0.39
16 | CN(C)CCOc1cc(Cl)cn2cc(C(=O)Nc3nc4cc(-c5cc(F)cc(Cl)c5)ccc4[nH]3)nc12 [Example 142, 6-Chloro-8-(2-dimethylamino-ethoxy)-imidazo[1,2-a]pyridine-2-carboxylic acid [5-(3-chloro-5-fluoro-phenyl)-1H-benzoimidazol-2-yl]-amide] | 0.34
17 | Cc1cccc2nc(C(=O)Nc3nc4cc(-c5cccc(F)c5)ccc4[nH]3)cn12 [Example 45, 5-Methyl-imidazo[1,2-a]pyridine-2-carboxylic acid [5-(3-fluoro-phenyl)-1H-benzoimidazol-2-yl]-amide] | 1.49
18 | O=C(Nc1nc2cc(OCc3ccc(C(F)(F)F)cc3)ccc2[nH]1)c1cn2cc(Cl)ccc2n1 [Example 21, 6-Chloro-imidazo[1,2-a]pyridine-2-carboxylic acid [5-(4-trifluoromethyl-benzyloxy)-1H-benzoimidazol-2-yl]-amide] | 0.14
19 | O=C(Nc1nc2cc(OCc3ccc(C(F)(F)F)cc3)ccc2[nH]1)c1cn2ccccc2n1 [Example 17, Imidazo[1,2-a]pyridine-2-carboxylic acid [5-(4-trifluoromethyl-benzyloxy)-1H-benzoimidazol-2-yl]-amide] | 0.12
20 | CN(C)Cc1ccc2nc(C(=O)Nc3nc4cc(-c5cccc(C(F)(F)F)c5)ccc4[nH]3)cn2c1 [Example 181, 6-Dimethylaminomethyl-imidazo[1,2-a]pyridine-2-carboxylic acid [5-(3-trifluoromethyl-phenyl)-1H-benzoimidazol-2-yl]-amide] | 0.8
21 | COCCCOc1cccc(-c2ccc3[nH]c(NC(=O)c4cn5c(C)cccc5n4)nc3c2)c1 [Example 39, 5-Methyl-imidazo[1,2-a]pyridine-2-carboxylic acid {5-[3-(3-methoxy-propoxy)-phenyl]-1H-benzoimidazol-2-yl}-amide] | 1.32
22 | Cc1cccc2nc(C(=O)Nc3nc4cc(C5CCCC5)ccc4[nH]3)cn12 [Example 118, 5-Methyl-imidazo[1,2-a]pyridine-2-carboxylic acid (5-cyclopentyl-1H-benzoimidazol-2-yl)-amide] | 0.99
23 | CN(C)c1cc(F)cn2cc(C(=O)Nc3nc4cc(-c5cccc(OC(F)(F)F)c5)ccc4[nH]3)nc12 [Example 133, 8-Dimethylamino-6-fluoro-imidazo[1,2-a]pyridine-2-carboxylic acid [5-(3-trifluoromethoxy-phenyl)-1H-benzoimidazol-2-yl]-amide] | 0.64
